Test results from PubChem BioAssay (NCI).
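Exposure lasted 48 hours, with cells grown in 96-well plates and compounds tested at five concentrations. Abbreviation: GI50, concentration required for 50% inhibition of growth. TGI: concentration producing complete growth inhibition.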

Key:
Assay in all cases: DTP human tumour cell line panel, 48 h
IGROV1 ovarian = system: IGROV1 ovarian
K-562 leukemia = system: K-562 leukemia
OVCAR-8 ovarian = system: OVCAR-8 ovarian
RPMI-8226 leukemia = system: RPMI-8226 leukemia
SK-MEL-5 melanoma = system: SK-MEL-5 melanoma
SK-OV-3 ovarian = system: SK-OV-3 ovarian
SN12C renal = system: SN12C renal
SNB-75 CNS = system: SNB-75 CNS
SR leukemia = system: SR leukemia
UACC-62 melanoma = system: UACC-62 melanoma

COc1ccc(/C=C2\SC(=Nc3ccccc3)NC2=O)cc1 showed a GI50 (IGROV1 ovarian) of 13.6 µM, a TGI (IGROV1 ovarian) of over 100 µM and a GI50 (K-562 leukemia) of 2.31 µM. It also gave a TGI (K-562 leukemia) of over 100 µM, a GI50 (OVCAR-8 ovarian) of 6.62 µM and a TGI (OVCAR-8 ovarian) of 31.7 µM. For the same compound, the GI50 (RPMI-8226 leukemia) was 5.38 µM, the TGI (RPMI-8226 leukemia) was over 100 µM and the GI50 (SK-MEL-5 melanoma) was 7.63 µM. The TGI (SK-MEL-5 melanoma) was 30.5 µM, the GI50 (SK-OV-3 ovarian) was 12.6 µM and the TGI (SK-OV-3 ovarian) was 46.8 µM. The GI50 (SN12C renal) was 9.1 µM, the TGI (SN12C renal) was over 100 µM and the GI50 (SNB-75 CNS) was 2.42 µM. The TGI (SNB-75 CNS) was 10.9 µM, the GI50 (SR leukemia) was 2.5 µM and the TGI (SR leukemia) was 30.7 µM. For the same compound, the GI50 (UACC-62 melanoma) was 4.79 µM and the TGI (UACC-62 melanoma) was over 100 µM.
CC([C@H]1CC=C2C3CCC4=C[C@@H](N(C)C)CC[C@]4(C)C3CC[C@@]21C)N(C)C (some centres undefined) showed a GI50 (IGROV1 ovarian) of 4.88 µM, a GI50 (K-562 leukemia) of 0.611 µM and a TGI (K-562 leukemia) of 3.05 µM. For the same compound, the GI50 (OVCAR-8 ovarian) was 5.85 µM, the TGI (OVCAR-8 ovarian) was 22.3 µM and the GI50 (RPMI-8226 leukemia) was 1.91 µM. The TGI (RPMI-8226 leukemia) was 13 µM, the GI50 (SK-MEL-5 melanoma) was 1.35 µM and the TGI (SK-MEL-5 melanoma) was 2.71 µM. The GI50 (SK-OV-3 ovarian) was 3.86 µM, the TGI (SK-OV-3 ovarian) was 11.6 µM and the GI50 (SN12C renal) was 2.54 µM. The TGI (SN12C renal) was 12.1 µM, the GI50 (SNB-75 CNS) was 3.3 µM and the TGI (SNB-75 CNS) was 10.6 µM. For the same compound, the GI50 (SR leukemia) was 0.876 µM, the TGI (SR leukemia) was 4.19 µM and the GI50 (UACC-62 melanoma) was 1.75 µM. For the same compound, the TGI (UACC-62 melanoma) was 3.59 µM.
Compound Cn1c(-c2ccccc2)c(/C=C/C2=[N+](C)c3ccccc3C2(C)C)c2ccccc21 has a GI50 (IGROV1 ovarian) of 1.87 µM, a TGI (IGROV1 ovarian) of 6.07 µM and a GI50 (K-562 leukemia) of 0.128 µM. For the same compound, the TGI (K-562 leukemia) was 5.3 µM, the GI50 (OVCAR-8 ovarian) was 0.84 µM and the TGI (OVCAR-8 ovarian) was 8.95 µM. The GI50 (RPMI-8226 leukemia) was 0.167 µM, the TGI (RPMI-8226 leukemia) was 0.911 µM and the GI50 (SK-MEL-5 melanoma) was 0.363 µM. It also gave a TGI (SK-MEL-5 melanoma) of 1.35 µM, a GI50 (SK-OV-3 ovarian) of 2.38 µM and a TGI (SK-OV-3 ovarian) of 8.03 µM. For the same compound, the GI50 (SN12C renal) was 1.7 µM, the TGI (SN12C renal) was 12.8 µM and the GI50 (SNB-75 CNS) was 1.63 µM. It also gave a TGI (SNB-75 CNS) of 10.7 µM, a GI50 (SR leukemia) of 0.433 µM and a TGI (SR leukemia) of 5.77 µM. The GI50 (UACC-62 melanoma) was 0.6 µM and the TGI (UACC-62 melanoma) was 3.97 µM.
Compound COC(=O)C(=O)C(C(=O)C(=O)Nc1ccccc1OC)c1nc2ccc([N+](=O)[O-])cc2[nH]c1=O (centres undefined) has a TGI (IGROV1 ovarian) of over 100 µM, a TGI (K-562 leukemia) of over 100 µM and a TGI (OVCAR-8 ovarian) of over 100 µM. For the same compound, the TGI (RPMI-8226 leukemia) was over 100 µM, the TGI (SK-MEL-5 melanoma) was over 100 µM and the TGI (SK-OV-3 ovarian) was over 100 µM. For the same compound, the TGI (SN12C renal) was over 100 µM, the TGI (SNB-75 CNS) was over 100 µM and the TGI (SR leukemia) was over 100 µM. The TGI (UACC-62 melanoma) was over 100 µM.
CC1CC(C)C2OC2(C)C[C@H](C)C(=O)NC(C)C(=O)N(C)[C@H](Cc2c(Br)[nH]c3ccccc23)C(=O)N[C@@H](c2ccc(O)cc2)CC(=O)O1 (some centres undefined) was tested, and the TGI (IGROV1 ovarian) was 0.683 µM, the TGI (K-562 leukemia) was over 77.4 µM and the TGI (OVCAR-8 ovarian) was over 52.7 µM. The TGI (RPMI-8226 leukemia) was 5.43 µM, the TGI (SK-MEL-5 melanoma) was 17.1 µM and the TGI (SK-OV-3 ovarian) was 3.04 µM. It also gave a TGI (SN12C renal) of over 100 µM, a TGI (SNB-75 CNS) of 2.32 µM and a TGI (SR leukemia) of over 100 µM. The TGI (UACC-62 melanoma) was 14.4 µM.
Compound CCCCCC[C@@H](C)NC(=O)c1ccc(Nc2nc3ccccc3c3occc23)cc1 has a GI50 (IGROV1 ovarian) of 1.61 µM, a TGI (IGROV1 ovarian) of 4.54 µM and a GI50 (K-562 leukemia) of 4.82 µM. It also gave a TGI (K-562 leukemia) of over 100 µM, a GI50 (OVCAR-8 ovarian) of 3.08 µM and a TGI (OVCAR-8 ovarian) of 16.5 µM. The GI50 (RPMI-8226 leukemia) was 3.75 µM, the TGI (RPMI-8226 leukemia) was over 100 µM and the GI50 (SK-MEL-5 melanoma) was 1.66 µM. For the same compound, the TGI (SK-MEL-5 melanoma) was 4.01 µM, the GI50 (SK-OV-3 ovarian) was 4.25 µM and the TGI (SK-OV-3 ovarian) was over 100 µM. The GI50 (SN12C renal) was 40.8 µM, the TGI (SN12C renal) was over 100 µM and the GI50 (SNB-75 CNS) was 2.25 µM. It also gave a TGI (SNB-75 CNS) of 6.38 µM, a GI50 (SR leukemia) of 18.9 µM and a TGI (SR leukemia) of 45.5 µM. It also gave a GI50 (UACC-62 melanoma) of 32.8 µM and a TGI (UACC-62 melanoma) of over 100 µM.
